Data as given in US8524274B2, “Liposomal composition comprising an active ingredient for relaxing smooth muscle, the production of this composition and the therapeutic use thereof” (Polymun Scientific Immunbiologische Forschung GmbH, priority 2004, dated 2013).
Counter-ions that a name gives are not always drawn.

What was measured:
[1] = Solubility of the active ingredient in loading buffer systems and in water; assay type: physicochemical; details: for solubility in citrate buffer: citric acid (intraliposomal) and citric acid/sodium carbonate pH 7.5-8.0 (extraliposomal)
Text: NH3, which is present in a reversible equilibrium with ammonium sulphate in the intraliposomal aqueous medium, attempts to migrate out through the liposome membrane and to leave behind an H^+. Sildenafil migrates in the opposite direction into the liposome, takes up the hydrogen ion H^+, becomes more hydrophilic thereby and therefore remains in the […]. In this way, sildenafil can be efficiently loaded into liposomes. This applies in a similar manner also to the sildenafil alternatives tadalafil and vardenafil.

[2] = Active loading of DPPC/cholesterol liposomes via H+ gradient; active ingredient and lipid content by rp-HPLC; assay type: physicochemical; details: two-stage variant; converted from the inclusion rate
Method: External loading of liposomes with sildenafil by means of H^+ gradient. The best inclusion rates were achieved under the following conditions. The lipids (molar DPPC:cholesterol ratio=55:45; in total 13 to 15 μmol per ml of aqueous phase) were dissolved in ethanol and this solution was injected into 125 mM ammonium sulphate solution. After spontaneous vesicle formation, the remaining, external ammonium sulphate solution was replaced by a 5% glucose solution and sildenafil citrate was added. In this way, an H^+ gradient formed between the inside and outside of the lipid vesicles. pH values below 2.5 are less suitable owing to resultant hydrolysis problems, and pH values greater than 5.5 are also not preferred, owing to the increasingly flat H^+ gradient. An aqueous 125 mM ammonium sulphate solution typically has a pH in the range of about 5-5.5. After removal of sildenafil which has not been included by means of gel filtration, both the active ingredient content and the lipid content were determined by means of rp-HPLC. Liposome size and distribution were determined by means of photon correlation spectroscopy (PCS). […]

SMILES	solubility in citrate buffer [1]	solubility in water ([1]; water)	active ingredient per ml of liposomal suspension [2]
CCCc1nn(C)c2c(=O)[nH]c(-c3cc(S(=O)(=O)N4CCN(C)CC4)ccc3OCC)nc12 [sildenafil citrate]	insoluble or scarcely soluble	dissolves very readily	
CCCc1nn(C)c2c(=O)[nH]c(-c3cc(S(=O)(=O)N4CCN(C)CC4)ccc3OCC)nc12 [sildenafil]	only poorly soluble or not soluble at all		1000-1500 μg of active ingredient per ml of liposomal suspension
